{"source": "paper PMC9499525", "about": "“Tissue-restricted inhibition of mTOR using chemical genetics” (Proceedings of the National Academy of Sciences of the …, 2022)", "key": {"[1]": {"tested_on": "S. cerevisiae BY4741 fpr1-KO expressing human FKBP12 variants", "experiment": "Yeast disk diffusion growth inhibition assay", "type": "cell-based, Saccharomyces cerevisiae", "details": "100 µM on disk, 3 d", "excerpt": "BY4741 fpr1::URA3 yeast were generated by homologous recombination, selected on Ura- synthetic complete medium and subsequently grown in yeast extract-peptone-dextrose (YPD) medium ([46]). Human FKBP12 coding sequence was cloned via Gibson assembly into a pCH043 yeast expression vector, which had been previously modified with an HIS3 selection open reading frame (ORF). The C-terminal HA-tag and F46/V55 mutations were introduced by site-directed mutagenesis PCR. Plasmids were transformed into the BY4741 fpr1::URA3 strain and selected on His- synthetic complete medium. Isolated strains were verified by plasmid sequencing. To prepare yeast protein lysates, 2 optical density (OD) equivalents from an overnight culture was resuspended in 200 µl 0.1 M NaOH and incubated at room temperature for 15 min. Cells were pelleted, resuspended in 50 µL 2x SDS loading dye, and heated at 95 °C for 5 min. Following centrifugation at 20,000 × g for 10 min, supernatant was saved for analysis.\nYeast strains containing FKBP12-expression vectors were shaken overnight at 30 °C in 3 mL His- synthetic complete media. 0.1 OD of culture was spun down, resuspended in 1 mL sterile water, and 100 µL was spread on His-synthetic media containing galactose/raffinose to induce protein expression. Plates were incubated at 30 °C for 1 h to dry. Filter paper circles were prepared with a hole punch, placed on the plate, and 5 µL of DMSO, 100 µM rapamycin, or 100 µM Rapa* compound was pipetted onto the filter paper. Plates were incubated at 30 °C for 3 d before zones of growth inhibition were measured."}, "[2]": {"target": "T1, FKBP12 V55G-HA / GST-mTOR FRB domain ternary complex (Homo sapiens, UniProt P42345+P62942, V56G)", "T1 construct": "recombinant HA-tagged wild-type or V55G mutant FKBP12 with GST-tagged mTOR FRB domain; 8xHis (cleaved yes); made in house; host or cells: E. coli BL21 (DE3) for FKBP12", "T1 sequence (P62942 whole entry V56G, the tested form may be a part)": "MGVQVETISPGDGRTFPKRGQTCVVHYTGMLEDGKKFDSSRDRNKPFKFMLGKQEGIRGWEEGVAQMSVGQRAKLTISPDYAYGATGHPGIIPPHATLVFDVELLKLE", "T1 sequence (P42345 2012-2144 limits assumed)": "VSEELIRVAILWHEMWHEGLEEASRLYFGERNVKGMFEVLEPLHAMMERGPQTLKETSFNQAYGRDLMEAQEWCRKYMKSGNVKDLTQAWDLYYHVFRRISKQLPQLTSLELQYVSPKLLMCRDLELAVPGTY", "experiment": "TR-FRET ternary complex formation, FKBP12 V55G with mTOR FRB", "type": "binding", "details": "FKBP12 V55G + mTOR FRB, n = 3, read-out: EC50 of ternary complex induction, FKBP12 V55G", "method": "TR-FRET assay was performed using recommended conditions from Cisbio with slight modifications. FKBP12-HA, FKBP12 V55G-HA, and GST-mTORFRB recombinant proteins were each diluted to 5 nM in assay buffer (20 mM HEPES pH 7.5, 150 mM NaCl, 0.05% Tween-20, 0.1% bovine serum albumin [BSA], 0.5 mM dithiothreitol [DTT]). Anti-GST-Tb (Cisbio) and Anti-HA-XL665 (Cisbio) were diluted to 0.625 µg/mL and 5 µg/mL, respectively, in assay buffer. Rapa* compounds and FK506 were diluted to 50 µM and rapamycin to 5 µM in assay buffer containing 5% DMSO, and threefold serial dilution series were made from these solutions. We mixed 4 µL diluted FKBP12-HA protein, 4 µL diluted GST-mTORFRB, and 4 µL of compound or DMSO control in a well of a black low-volume 384-well plate (Corning 4514), and the mixture was incubated at room temperature for 1 h. We then added 4 µL of Anti-GST-Tb, and 4 µL Anti-HA-XL665, and the mixture was incubated at room temperature for an additional 1 h. Time-resolved fluorescence was read on a Tecan Spark 20M plate reader with the following parameters: Lag time: 60 µs; Integration time: 500 µs; Read A: Excitation filter 320 ([25]) nm, Emission filter 610 ([25]) nm, Gain 130; Read B: Excitation filter 320 ([25]) nm, Emission filter 665 ([8]) nm, Gain 165. Three replicates were performed for each assay condition. […]\nHuman FKBP12 coding sequence was cloned a pET-47b bacterial expression vector using Gibson assembly and a C-terminal HA-tag was added by QuickChange PCR. FKBP12 proteins were expressed as 8xHis fusions in E. coli BL21 (DE3) cells. […] Samples were then purified by size exclusion chromatography, concentrated to 10-20 mg/mL, and snap frozen in liquid nitrogen. pGEX-2T FRB was a gift from Jie Chen (Addgene plasmid #26607). mTOR FRB was expressed as a GST-fusion and purified as previously described (1). […]\nPAMPA was performed by Quintara Discovery as described previously (2). Compounds were analyzed at 100 µM in PBS and measured using liquid chromatography-mass spectrometry (LC-MS) after 5 hours. […] Compounds were analyzed at 10 µM and measured by LC-MS after 1 hour."}}}
{"smiles": "CCO/N=C1/C[C@@H]([C@H](C)C[C@@H]2CC[C@@H](O)[C@H](OC)C2)OC(=O)[C@@H]2CCCCN2C(=O)C(=O)[C@]2(O)O[C@@H](CC[C@H]2C)C[C@H](OC)/C(C)=C/C=C/C=C/[C@@H](C)C[C@@H](C)C(=O)[C@H](OC)[C@H](O)/C(C)=C/[C@H]1C", "note": "[Rapa*-3Z]", "values": [{"measurement": "Growth inhibition of yeast expressing FKBP12 V55G", "setting": "[1]", "result": "displayed the highest level of inhibition"}, {"measurement": "EC50", "setting": "[2]", "result": 11.8, "unit": "nM"}]}
